Experimental data: patent US7727511B2, “Agents for imaging soluble a-beta” (priority 2003, dated 2010)
Entries after “also recorded” stand apart in the source; their conditions may differ.

How the values were obtained:
[1] = target: T1, beta-amyloid 1-42 oligomer (20% biotin) (Homo sapiens, UniProt P05067); test: Scintillation proximity assay (SPA), direct/saturation binding of tritium labeled probe to soluble oligomers
T1 construct: 12 μg beta-amyloid 1-42 oligomer (20% biotin); purchased Bachem H-5642; host or cells: synthetic peptide
T1 sequence (P05067 672-713 limits assumed): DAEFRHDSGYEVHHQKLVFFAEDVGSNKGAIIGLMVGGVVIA
Description: To prepare soluble oligomer, the film was dissolved in appropriate amount of dry DMSO (Sigma), and Ham's F12 media (Biosource) or PBS (Sigma, D8537) was added and incubated at 4° C. for 24 hours (final concentration of 200 uM or 0.9 mg/mL beta-amyloid in 2% DMSO). The tube containing the soluble oligomers was centrifuged at 13,000 rpm for 5 mins, and its supernatant was transferred to a clean tube.
For SPA and atomic force microscopy (AFM) experiments, preparations of soluble oligomers and fibrils contained 20% biotinylated beta-amyloid 1-42 and 1-40, respectively (H-5642, H-5914, Bachem).
For the saturation-binding assay, isotopic dilution of radiolabeled 49b with unlabeled 49b was performed. ^3H-49b was added to 500 uM of unlabeled 49b to a final concentration of 50 μCi/mL ^3H-49b. The probe solution was then serially diluted in PBS to give six solutions giving 6.6, 13.1, 26.3, 52.5, 105, or 210 uM in the final assay well. Each concentration of the probe solution was incubated with 12 μg beta-amyloid 1-42 oligomer (20% biotin) or 1-40 (20% biotin) fibrils in a total volume of 90 μl. Assays were incubated at room temp for 2 hrs before addition of 10 μL YSi-streptavidin (0.25 mg) SPA bead. Assays were set-up in triplicate in 96-well NBS plates (Costar). Assays were incubated overnight and counted the following morning. […] Assay conditions were the same as described in saturation binding assay.
A direct binding assay using tritium labeled 49b was performed against oligomers or fibrils by scintillation proximity assay (SPA). Beta-amyloid containing 20% biotin and tritiated 49b were incubated in solution for two hours prior to addition of the Ysi-Streptavidin beads.

[2] = target: T1, beta-amyloid 1-42 oligomer (20% biotin); test: SPA competition binding assay against 3H-49b on soluble oligomers; details: 50 uM unlabeled competitor, 130 nM 3H-49b
Description: Lyophilized Streptavidin-Ysi beads (GE Healthcare) were reconstituted to 100 mg/mL in deioniozed water, and then further diluted in deionized water to give a suspension containing 0.25 mg/10 μl water. Unlabeled 49b and other benzofuran probes were dissolved in DMSO to give a final stock concentration of 15 mM.
For the saturation-binding assay, isotopic dilution of radiolabeled 49b with unlabeled 49b was performed. ^3H-49b was added to 500 uM of unlabeled 49b to a final concentration of 50 μCi/mL ^3H-49b. The probe solution was then serially diluted in PBS to give six solutions giving 6.6, 13.1, 26.3, 52.5, 105, or 210 uM in the final assay well. Each concentration of the probe solution was incubated with 12 μg beta-amyloid 1-42 oligomer (20% biotin) or 1-40 (20% biotin) fibrils in a total volume of 90 μl. Assays were incubated at room temp for 2 hrs before addition of 10 μL YSi-streptavidin (0.25 mg) SPA bead. Assays were set-up in triplicate in 96-well NBS plates (Costar). Assays were incubated overnight and counted the following morning. […] The specific activities of the four probes were different, however the level of activity was the same at the concentrations where the probes were tested. For this assay, 130 nM of ^3H-49b, 90 nM ^3H-cimetidine, 14 nM ^3H-caffeine, and 6 nM ^3H-AZT were tested for direct binding to 12 ug of beta-amyloid-42 oligomer (20% biotin). Assay conditions were the same as described in saturation binding assay. […]
Data analyses were performed using Sigma Plot or GraphPad Prism® version 4. Curves were fitted using non-linear regression. KD values and IC50 values were estimated from the binding curves.
For the competition binding assay between tritium-labeled 49b and various unlabeled benzofuran analogs, assays contained 130 nM ^3H-49b and 50 uM of each of the unlabeled benzofuran analogs. As controls, 10 uM and 50 uM of unlabeled 49b were included in the assays.

[3] = target: beta-amyloid 1-40 monomers (Homo sapiens, UniProt P05067); test: Ex vivo fluorescent binding assay, monomers on naive rat brain sections; details: data not shown
Chain of beta-amyloid 1-40 monomers (P05067 672-711 limits assumed): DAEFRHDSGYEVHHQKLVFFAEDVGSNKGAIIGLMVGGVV
Description: (§1) Fresh-frozen tissue sections of Sprauge-Dawley naïve rat brain (Taconic) 10 microns in thickness were fixed with 10% formalin in PBS. Each section of the rat brain was then embedded in paraffin, an optional step that increases the shelf life of the sample. Pre-formed soluble oligomers (100 μM), fibrils (100 μM), or monomers were applied onto tissues, and the slides incubated in a humidified chamber for two hours at 37° C. The slides were washed with PBS three times, then incubated with blocking buffer consisting of 10% normal goat serum in 3% BSA in PBS. To verify the presence of beta-amyloid, 100 μL of a 1/250th dilution of anti-beta-amyloid antibody, 6E10 (Signet Laboratories) was applied onto the tissues. The slides were incubated for 1.5 hours at room temperature or for 45 mins at 37° C. 1 mM stock solutions of 49b and Thioflavin T were prepared in 50% ethanol. The probes were diluted to 50 μM in blocking buffer. […] Microscopic examination and imaging was performed using a Leica wide-field fluorescence microscope using filter cube A (band pass 340-380 nm with a 400 nm dichroic mirror and a long pass 400 nm suppression filter) for 49b, cube E4 (band pass 436 nm with 455 dichroic mirror and a long pass 470 nm suppression filter) for Thioflavin T, and TX2 (band pass 520-600 nm with 595 nm dichroic mirror and 645/75 band pass suppression filter) for 6E10 immunostaining.

[4] = target: beta-amyloid 1-42 monomers (Homo sapiens, UniProt P05067); test: as above; details: data not shown
Chain of beta-amyloid 1-42 monomers (P05067 672-713 limits assumed): as the sequence (P05067 672-713 limits assumed) above
Description: as §1

[5] = system: beta-amyloid in PDAPP mouse brain sections; test: Histochemical staining on PDAPP transgenic mouse brain sections; format: binding
Description: 3-month old and 24-month old PDAPP mouse brains were obtained from Eli Lilly (Indianapolis, Ind.). Fresh frozen 30 micron sections of the brains were fixed in 10% formalin. For 49b, or Thioflavin S staining, 1 mM stock solutions of 49b and Thioflavin S were prepared in 50% ethanol. The probes were diluted to 25 μM in 50% ethanol, and then applied onto the PDAPP brain sections. The slides were incubated in a humid chamber at room temperature for 1 hr. The slides were washed three times with PBS and mounting medium (Molecular Probes) was added. The slides were incubated at least 4-6 hours before imaging. For the carbonate pre-treatment of the brain sections, formalin-fixed sections were incubated with 100 μL of carbonate buffer containing 0.025 M sodium chloride and 0.1 M sodium carbonate for 45 mins at 37° C. The slides were washed three times with PBS, then 49b or Thioflavin S were applied on the slides as described above. Microscopic examination and imaging was performed using a Leica wide-field fluorescence microscope using filter cube A for 49b and cube E4 for Thioflavin S. Co-staining of the probes with 6E10 anti-beta-amyloid antibody in the PDAPP brain sections was described in the ex vivo assay using naïve rats.

For `O=Cc1ccc(-c2oc3ccccc3c2CO)o1` [Compound 49b, 2-(2-formyl-5-furanyl)-3-hydroxymethyl benzofuran], which Kd ([1]; SPA saturation binding of 3H-49b, isotopic dilution with unlabeled 49b) is on record?
The Kd was 50 µM.

And the Bmax ([1]; SPA saturation binding, oligomers)?
The Bmax was 60-80 nmol/mg beta-amyloid.

And the “molar ratio probe : beta-amyloid” value ([1]; from Bmax, oligomers)?
The value was 1 probe: 3-4 beta-amyloid.

And the inhibition at 50 µM [2]?
Its inhibition at 50 µM is 61%.

And the “staining of beta-amyloid 1-40 monomers” value [3]?
The value was “did not stain”.

And the “staining of beta-amyloid 1-42 monomers” value [4]?
Its value is “did not stain”.

What about the “staining of brain sections” value ([5]; 24-month old PDAPP mice, 25 μM probe) of the same compound?
The value was “punctuate staining pattern that co-localized with beta-amyloid immunoreactivity; also recorded: primarily found in the hippocampus and co-localized with Thioflavin S staining”.

And the “staining of carbonate pre-treated brain sections” value ([5]; 24-month old PDAPP, carbonate extraction buffer to remove soluble material)?
Its value is “did not stain”.

And the “staining of brain sections” value ([5]; young (3-month old) PDAPP mice)?
Its value is “No staining was observed”.
